{"source": "paper PMC9403976", "about": "“Elucidating the path to Plasmodium prolyl-tRNA synthetase inhibitors that overcome halofuginone resistance” (Nature Communications, 2022)", "key": {"P. falciparum Dd2-2D4": {"tested_on": "P. falciparum Dd2-2D4", "assay": "P. falciparum asexual blood stage (ABS) growth assay, SYBR Green, 72 h, wild-type parasites", "type": "cell-based, Plasmodium falciparum", "conditions": "Plasmodium falciparum, DD2; SI Fig 16b; values on -log scale; read-out: ABS - Dd2-2D4 (converted)", "experimental": "Parasites were maintained under standard culture conditions as described previously[56],[57]. […] The P. falciparum Dd2 cell lines used in this study (Dd2-2D4, halofuginone-induced, and HFGR-I) have previously undergone whole genome sequencing in our labs.\nThis assay was performed as previously described[8]. In short, P. falciparum erythrocytic-stage parasites at 1% parasitemia and 1% hematocrit in RPMI + 0.5% Albumax were seeded at 40 μL/well in 384-well plates with test compounds in triplicate, dose-response format with 10 μM dihydroartemisinin as a kill-control and blank (no compound) wells as a growth-control. […] After 72 h, growth was quantified by measuring fluorescence (Molecular Devices SpectraMax iD5) following SYBR Green 1 staining. Data were analyzed in Excel and plotted in PRISM (V. 8.4.3–9.1.0, GraphPad)."}, "[1]": {"tested_on": "halofuginone-induced P. falciparum (elevated proline homeostasis)", "assay": "P. falciparum ABS growth assay, SYBR Green, 72 h, halofuginone-induced parasites", "type": "cell-based, Plasmodium falciparum", "method_in_brief": "(§1)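 Asexual blood-stage Dd2 parasites, 1% parasitemia/1% hematocrit, RPMI + 0.5% Albumax; triplicate dose-response, 72 h. Readout SYBR Green 1 fluorescence. Controls: 10 μM dihydroartemisinin (kill), no compound (growth). EC50 values determined.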"}, "[2]": {"tested_on": "HFGR-I P. falciparum (elevated proline homeostasis and PfcProRS^L482H)", "assay": "P. falciparum ABS growth assay, SYBR Green, 72 h, HFGR-I parasites", "type": "cell-based, Plasmodium falciparum", "method_in_brief": "as §1"}, "PfcProRS": {"target": "T1, PfcProRS (Plasmodium falciparum, UniProt Q8I5R7)", "T1 construct": "made in house; host or cells: E. coli SoluBL-21", "T1 sequence (Q8I5R7 249-746)": "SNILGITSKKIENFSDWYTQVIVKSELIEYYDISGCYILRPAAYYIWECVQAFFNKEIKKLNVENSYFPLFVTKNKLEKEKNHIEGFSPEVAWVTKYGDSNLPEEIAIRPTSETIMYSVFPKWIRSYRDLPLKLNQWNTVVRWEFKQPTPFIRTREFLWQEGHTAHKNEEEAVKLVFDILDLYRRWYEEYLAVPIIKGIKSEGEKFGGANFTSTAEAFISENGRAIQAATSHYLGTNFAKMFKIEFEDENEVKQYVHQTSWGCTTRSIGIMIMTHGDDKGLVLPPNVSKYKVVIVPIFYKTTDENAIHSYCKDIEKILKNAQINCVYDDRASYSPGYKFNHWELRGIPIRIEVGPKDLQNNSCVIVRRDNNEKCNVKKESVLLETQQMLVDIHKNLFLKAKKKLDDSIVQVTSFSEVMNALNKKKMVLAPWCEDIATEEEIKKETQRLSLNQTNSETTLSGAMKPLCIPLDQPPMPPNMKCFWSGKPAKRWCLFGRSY", "type": "binding", "conditions": "single replicates"}, "HsProRS": {"target": "HsProRS (Homo sapiens, UniProt P07814)", "sequence (P07814 996-1512)": "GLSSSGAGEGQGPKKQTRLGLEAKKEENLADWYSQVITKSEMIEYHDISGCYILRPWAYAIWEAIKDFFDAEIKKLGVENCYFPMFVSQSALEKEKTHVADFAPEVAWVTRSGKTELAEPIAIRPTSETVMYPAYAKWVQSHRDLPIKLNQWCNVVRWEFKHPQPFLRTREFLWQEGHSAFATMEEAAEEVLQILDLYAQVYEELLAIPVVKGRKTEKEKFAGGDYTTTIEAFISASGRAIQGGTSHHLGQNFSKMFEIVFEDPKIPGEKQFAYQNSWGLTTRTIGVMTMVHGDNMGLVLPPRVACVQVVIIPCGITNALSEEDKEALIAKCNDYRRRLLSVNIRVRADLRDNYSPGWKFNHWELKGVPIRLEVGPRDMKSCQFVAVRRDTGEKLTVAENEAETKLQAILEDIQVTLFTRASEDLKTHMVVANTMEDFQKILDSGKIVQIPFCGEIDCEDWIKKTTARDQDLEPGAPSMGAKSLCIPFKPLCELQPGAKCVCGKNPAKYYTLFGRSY", "assay": "TR-FRET ligand displacement assay with tracer MAT379 (CoraFluor-1-Halo and anti-His6 antibody formats)", "type": "binding", "design": "made in house; host or cells: E. coli SoluBL-21", "conditions": "for TR-FRET dose-response, normalized signal (SI Fig 11): individual replicates"}}, "note": "Where “and” joins values, the source holds several entries; their conditions need not be identical. Equal values may be shown once. Read-outs that look alike come from different tables or passages of the source.", "data": [{"molecule": "O=C(NC1Cc2ccccc2C1)c1nccnc1NC(=O)N1CCC(CO)CC1", "note": "[compound 11]", "values": [{"measurement": "EC50", "setting": "P. falciparum Dd2-2D4", "result": 711, "unit": "nM"}, {"measurement": "dose-response value, Replicates 1-3 (SI Fig 2e)", "setting": "[1]; Log[inhibitor] (M) -5.408", "result": 12}, {"measurement": "EC50", "setting": "[1]; Plasmodium falciparum, DD2, read-out: Dd2 (EC50 [nM]) halofuginone-induced mean", "result": 2470, "unit": "nM"}, {"measurement": "dose-response value, Replicates 1-3 (SI Fig 2f)", "setting": "[2]; Log[inhibitor] (M) -5.000", "result": 0}, {"measurement": "EC50", "setting": "[2]; Plasmodium falciparum, DD2, read-out: Dd2 (EC50 [nM]) HFGR1 mean", "result": 1910, "unit": "nM"}, {"measurement": "dose-response signal (normalized), SI Fig 8", "setting": "PfcProRS; Log[inhibitor] (M) -5.000", "result": "5.60E-02 and 7.55E-02 and 4.27E-02"}, {"measurement": "dose-response signal (normalized), SI Fig 8", "setting": "PfcProRS; Log[inhibitor] (M) -5.301", "result": "7.92E-02 and 2.41E-02 and 4.88E-02"}, {"measurement": "dose-response signal (normalized), SI Fig 8", "setting": "PfcProRS; Log[inhibitor] (M) -5.601", "result": "9.80E-02 and 1.87E-03 and 7.44E-02"}, {"measurement": "dose-response signal (normalized), SI Fig 8", "setting": "PfcProRS; Log[inhibitor] (M) -5.904", "result": "2.50E-01 and 1.37E-01 and 2.03E-01"}, {"measurement": "dose-response signal (normalized), SI Fig 8", "setting": "PfcProRS; Log[inhibitor] (M) -6.208", "result": "3.69E-01 and 3.33E-01 and 3.17E-01"}, {"measurement": "dose-response signal (normalized), SI Fig 8", "setting": "PfcProRS; Log[inhibitor] (M) -6.509", "result": "6.08E-01 and 6.11E-01 and 6.37E-01"}, {"measurement": "dose-response signal (normalized), SI Fig 8", "setting": "PfcProRS; Log[inhibitor] (M) -6.796", "result": "7.29E-01 and 7.94E-01 and 7.90E-01"}, {"measurement": "dose-response signal (normalized), SI Fig 8", "setting": "PfcProRS; Log[inhibitor] (M) -7.108", "result": "8.18E-01 and 8.62E-01 and 9.40E-01"}, {"measurement": "dose-response signal (normalized), SI Fig 8", "setting": "PfcProRS; Log[inhibitor] (M) -7.409", "result": "1.03E+00 and 1.01E+00 and 8.87E-01"}, {"measurement": "dose-response signal (normalized), SI Fig 8", "setting": "PfcProRS; Log[inhibitor] (M) -7.710", "result": "1.08E+00 and 9.42E-01 and 9.86E-01"}, {"measurement": "dose-response signal (normalized), SI Fig 8", "setting": "PfcProRS; Log[inhibitor] (M) -8.000", "result": "1.04E+00 and 9.91E-01 and 1.06E+00"}, {"measurement": "dose-response signal (normalized), SI Fig 8", "setting": "PfcProRS; Log[inhibitor] (M) -8.301", "result": "1.09E+00 and 1.02E+00 and 1.00E+00"}, {"measurement": "dose-response signal (normalized), SI Fig 8", "setting": "PfcProRS; Log[inhibitor] (M) -8.602", "result": "1.07E+00 and 9.31E-01 and 1.05E+00"}, {"measurement": "dose-response signal (normalized), SI Fig 8", "setting": "PfcProRS; Log[inhibitor] (M) -9.000", "result": "8.46E-01 and 1.03E+00 and 9.88E-01"}, {"measurement": "dose-response signal (normalized), SI Fig 8", "setting": "PfcProRS; Log[inhibitor] (M) -9.301", "result": "1.09E+00 and 1.13E+00 and 1.15E+00"}, {"measurement": "Kd", "setting": "HsProRS; HsProRS (KD [nM]) + 100 μM proline mean, + 100 μM proline", "result": 8.42, "unit": "nM"}, {"measurement": "Kd", "setting": "HsProRS; HsProRS (KD [nM]) mean, no added proline/ATP (-)", "result": 265, "unit": "nM"}, {"measurement": "normalized TR-FRET ligand displacement signal, dose-response replicates (SI Fig 6)", "setting": "HsProRS; Log[inhibitor] (M) -5.000", "result": "7.29E-02 and 8.36E-02 and 3.81E-02"}, {"measurement": "TR-FRET dose-response, normalized signal (SI Fig 11)", "setting": "HsProRS; Log[inhibitor] (M) -5.000", "result": "-1.28E-03 and -3.43E-02 and 2.65E-03"}, {"measurement": "normalized TR-FRET ligand displacement signal, dose-response replicates (SI Fig 6)", "setting": "HsProRS; Log[inhibitor] (M) -5.301", "result": "1.45E-01 and 1.02E-01 and 9.61E-02"}, {"measurement": "TR-FRET dose-response, normalized signal (SI Fig 11)", "setting": "HsProRS; Log[inhibitor] (M) -5.301", "result": "2.77E-02 and 5.85E-02 and -1.28E-02"}, {"measurement": "normalized TR-FRET ligand displacement signal, dose-response replicates (SI Fig 6)", "setting": "HsProRS; Log[inhibitor] (M) -5.601", "result": "2.34E-01 and 2.43E-01 and 2.83E-01"}, {"measurement": "TR-FRET dose-response, normalized signal (SI Fig 11)", "setting": "HsProRS; Log[inhibitor] (M) -5.601", "result": "8.35E-02 and 4.98E-02 and 9.15E-02"}, {"measurement": "normalized TR-FRET ligand displacement signal, dose-response replicates (SI Fig 6)", "setting": "HsProRS; Log[inhibitor] (M) -5.904", "result": "4.84E-01 and 4.37E-01 and 4.52E-01"}, {"measurement": "TR-FRET dose-response, normalized signal (SI Fig 11)", "setting": "HsProRS; Log[inhibitor] (M) -5.904", "result": "2.07E-01 and 2.25E-01 and 2.22E-01"}, {"measurement": "normalized TR-FRET ligand displacement signal, dose-response replicates (SI Fig 6)", "setting": "HsProRS; Log[inhibitor] (M) -6.208", "result": "6.54E-01 and 5.62E-01 and 6.80E-01"}, {"measurement": "TR-FRET dose-response, normalized signal (SI Fig 11)", "setting": "HsProRS; Log[inhibitor] (M) -6.208", "result": "3.66E-01 and 3.44E-01 and 3.52E-01"}, {"measurement": "normalized TR-FRET ligand displacement signal, dose-response replicates (SI Fig 6)", "setting": "HsProRS; Log[inhibitor] (M) -6.509", "result": "6.98E-01 and 7.35E-01 and 8.42E-01"}, {"measurement": "TR-FRET dose-response, normalized signal (SI Fig 11)", "setting": "HsProRS; Log[inhibitor] (M) -6.509", "result": "5.64E-01 and 5.20E-01 and 5.33E-01"}, {"measurement": "normalized TR-FRET ligand displacement signal, dose-response replicates (SI Fig 6)", "setting": "HsProRS; Log[inhibitor] (M) -6.796", "result": "1.06E+00 (2×) and 1.05E+00"}, {"measurement": "TR-FRET dose-response, normalized signal (SI Fig 11)", "setting": "HsProRS; Log[inhibitor] (M) -6.796", "result": "7.28E-01 and 6.74E-01 and 6.24E-01"}, {"measurement": "normalized TR-FRET ligand displacement signal, dose-response replicates (SI Fig 6)", "setting": "HsProRS; Log[inhibitor] (M) -7.108", "result": "8.92E-01 and 1.10E+00 and 9.75E-01"}, {"measurement": "TR-FRET dose-response, normalized signal (SI Fig 11)", "setting": "HsProRS; Log[inhibitor] (M) -7.108", "result": "7.19E-01 and 7.66E-01 and 7.53E-01"}, {"measurement": "normalized TR-FRET ligand displacement signal, dose-response replicates (SI Fig 6)", "setting": "HsProRS; Log[inhibitor] (M) -7.409", "result": "9.25E-01 and 9.47E-01 and 1.04E+00"}, {"measurement": "TR-FRET dose-response, normalized signal (SI Fig 11)", "setting": "HsProRS; Log[inhibitor] (M) -7.409", "result": "8.67E-01 and 8.81E-01 and 8.44E-01"}, {"measurement": "normalized TR-FRET ligand displacement signal, dose-response replicates (SI Fig 6)", "setting": "HsProRS; Log[inhibitor] (M) -7.710", "result": "9.81E-01 and 9.55E-01 and 9.75E-01"}, {"measurement": "TR-FRET dose-response, normalized signal (SI Fig 11)", "setting": "HsProRS; Log[inhibitor] (M) -7.710", "result": "9.29E-01 and 8.46E-01 and 9.70E-01"}, {"measurement": "normalized TR-FRET ligand displacement signal, dose-response replicates (SI Fig 6)", "setting": "HsProRS; Log[inhibitor] (M) -8.000", "result": "9.65E-01 and 1.05E+00 and 9.80E-01"}, {"measurement": "TR-FRET dose-response, normalized signal (SI Fig 11)", "setting": "HsProRS; Log[inhibitor] (M) -8.000", "result": "9.63E-01 and 9.74E-01 and 9.23E-01"}, {"measurement": "normalized TR-FRET ligand displacement signal, dose-response replicates (SI Fig 6)", "setting": "HsProRS; Log[inhibitor] (M) -8.301", "result": "1.00E+00 and 9.43E-01 and 1.07E+00"}, {"measurement": "TR-FRET dose-response, normalized signal (SI Fig 11)", "setting": "HsProRS; Log[inhibitor] (M) -8.301", "result": "9.20E-01 and 9.31E-01 and 8.90E-01"}, {"measurement": "normalized TR-FRET ligand displacement signal, dose-response replicates (SI Fig 6)", "setting": "HsProRS; Log[inhibitor] (M) -8.602", "result": "1.02E+00 (2×) and 9.43E-01"}, {"measurement": "TR-FRET dose-response, normalized signal (SI Fig 11)", "setting": "HsProRS; Log[inhibitor] (M) -8.602", "result": "8.99E-01 and 8.64E-01 and 8.60E-01"}, {"measurement": "normalized TR-FRET ligand displacement signal, dose-response replicates (SI Fig 6)", "setting": "HsProRS; Log[inhibitor] (M) -9.000", "result": "9.86E-01 and 1.02E+00 and 1.11E+00"}, {"measurement": "TR-FRET dose-response, normalized signal (SI Fig 11)", "setting": "HsProRS; Log[inhibitor] (M) -9.000", "result": "9.04E-01 and 9.68E-01 and 8.68E-01"}, {"measurement": "normalized TR-FRET ligand displacement signal, dose-response replicates (SI Fig 6)", "setting": "HsProRS; Log[inhibitor] (M) -9.301", "result": "1.03E+00 (2×) and 9.04E-01"}, {"measurement": "TR-FRET dose-response, normalized signal (SI Fig 11)", "setting": "HsProRS; Log[inhibitor] (M) -9.301", "result": "8.86E-01 and 9.16E-01 and 9.33E-01"}]}]}
